{"source": "patent US11090310B2", "about": "“Methods and compositions for treating hypertriglyceridemia” (THE REGENTS OF THE UNIVERSITY OF CALIFORNIA, priority 2016, dated 2021)", "molecules": {"B1": {"name": "GPIHBP1-G175R: GPIHBP1 with G175R missense substitution in the carboxyl-terminal hydrophobic domain (protein)", "chain": "QTQQEEEEEDEDHGPDDYDEEDEDEVEEEETNRLPGGRSRVLLRCYTCKSLPRDERCNLTQNCSHGQTCTTLIAHGNTESGLLTTHSTWCTDSCQPITKTVEGTQVTMTCCQSSLCNVPPWQSSRVQDPTG", "modifications": "left off: small tags and cut ends", "notes": "GPIHBP1 with G175R missense substitution in the carboxyl-terminal hydrophobic domain"}, "B2": {"name": "GPIHBP1-W109S: mutant GPIHBP1 which lacks the ability to bind LPL, used as control (protein)", "chain": "QTQQEEEEEDEDHGPDDYDEEDEDEVEEEETNRLPGGRSRVLLRCYTCKSLPRDERCNLTQNCSHGQTCTTLIAHGNTESGLLTTHSTSCTDSCQPITKTVEGTQVTMTCCQSSLCNVPPWQSSRVQDPTG", "modifications": "left off: small tags and cut ends"}}, "key": {"[1]": {"test": "Plasma triglyceride levels of patients with GPIHBP1 autoantibodies under drug treatment (case follow-up)", "assay_type": "in vivo, human", "conditions": "for effect of treatment on plasma triglycerides / hypertriglyceridemia (in words): case reports of single patients (111, 157, 164)"}, "autoantibodies": {"tested_on": "autoantibodies", "conditions": "in patients, literature reports; cited from earlier work"}, "V5-tagged human LPL": {"target": "T1, V5-tagged human LPL (Homo sapiens, UniProt P06858)", "T1 construct": "made in house", "T1 sequence (P06858 28-475)": "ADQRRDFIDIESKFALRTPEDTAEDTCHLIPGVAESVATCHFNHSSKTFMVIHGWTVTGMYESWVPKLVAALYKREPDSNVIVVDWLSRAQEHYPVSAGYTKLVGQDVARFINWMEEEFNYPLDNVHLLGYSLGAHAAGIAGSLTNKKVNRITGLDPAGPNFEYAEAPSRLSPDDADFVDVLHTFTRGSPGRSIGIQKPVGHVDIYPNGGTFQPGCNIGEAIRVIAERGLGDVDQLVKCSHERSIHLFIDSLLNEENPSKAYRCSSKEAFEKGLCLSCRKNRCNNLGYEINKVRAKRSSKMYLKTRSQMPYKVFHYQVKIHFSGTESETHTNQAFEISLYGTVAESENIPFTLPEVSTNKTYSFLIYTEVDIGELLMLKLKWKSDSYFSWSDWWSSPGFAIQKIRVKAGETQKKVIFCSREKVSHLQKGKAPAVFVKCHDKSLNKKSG", "test": "Cell-based LPL-GPIHBP1 binding assay of GPIHBP1 variants", "conditions": "transfected CHO pgsA-745 cells or HUVEC", "procedure": "Expression vectors for S-protein-tagged wild-type (wt) GPIHBP1, GPIHBP1-G175R, and GPIHBP1-W109S (or the empty vector) were transfected into CHO pgsA-745 cells or human umbilical vein endothelial cells (HUVEC). After 1 day, the cells were washed three times in PBS and incubated for 1 h at 4° C. with V5-tagged human LPL (900 ng/well). Then the cells were washed six times in PBS, and cell lysates were collected in RIPA buffer (Sigma) containing a protease inhibitor cocktail (Roche). Proteins were separated by SDS-PAGE, and western blots were performed under reducing conditions with a goat antibody against the S-protein tag (Abcam, 5 μg/ml), followed by an IRdye680-donkey anti-goat IgG (LI-COR, 1:2000) and an IRdye800-V5 antibody (1:500)."}}, "data": [{"molecule": "COc1c(C)c2c(c(O)c1C/C=C(\\C)CCC(=O)OCCN1CCOCC1)C(=O)OC2", "note": "[Mycophenolate mofetil]", "values": [{"measurement": "effect of treatment on plasma triglycerides / hypertriglyceridemia (in words)", "setting": "[1]", "result": "failed to lower the plasma triglyceride levels"}, {"measurement": "Follow-up (mg/dl): follow-up plasma triglyceride levels after treatment", "setting": "[1]; single patients: 101 (prednisolone 10 mg/day, salazosulfapyridine 1000 mg/day), 111, 164 (mycophenolate mofetil 750 + 500 mg/day, hydroxychloroquine 100 mg/day)", "result": "2,573-4,085 mg/dl"}]}, {"molecule": "Belimumab", "values": [{"measurement": "reduction of autoantibodies", "setting": "autoantibodies", "result": "reduce autoantibodies"}]}, {"molecule": "Rituximab", "values": [{"measurement": "reduction of autoantibodies", "setting": "autoantibodies", "result": "reducing the production of autoantibodies in patients"}]}, {"molecule": "n−3 fatty acids", "values": [{"measurement": "effect of treatment on plasma triglycerides / hypertriglyceridemia (in words)", "setting": "[1]", "result": "resistant"}]}, {"molecule": "B1", "values": [{"measurement": "LPL binding by GPIHBP1 variant expressed on cells", "setting": "V5-tagged human LPL", "result": "binds LPL avidly"}]}, {"molecule": "B2", "values": [{"measurement": "LPL binding by GPIHBP1 variant expressed on cells", "setting": "V5-tagged human LPL", "result": "lacks the ability to bind LPL"}]}]}
